The structures appear in SMILES notation.

This assay relates to Plasmodium falciparum. In words: GSK_TCMDC: Inhibition of Plasmodium falciparum 3D7 in whole erythrocytes, using parasite LDH activity as an index of growth. The assay is classed as functional, organism-based. The following applies: Plasmodium falciparum, 3D7.
In turn, `Cc1[nH]c2ccc(O)cc2c1C1CCN(CCCCCNC(=O)/C=C/c2ccc(Cl)c(Cl)c2)CC1` registered an XC50 of 771 nM.
Then `OC(CNCc1ccccc1Oc1ccccc1)c1cc(Br)cs1` (configuration not stated), with 1110 nM; and `CC(C)Nc1ccc(Nc2ccnc3cc4ccccc4cc23)cc1`, with 142 nM.
Then `O=C(Nc1cc(Cl)ccc1O)c1cnn2c(C(F)(F)F)cc(-c3cccs3)nc12`, with 859 nM; and `CCNc1cc(C(=O)N[C@@H](Cc2ccccc2)[C@H](O)CNCCc2ccccc2)cc(N2CCCCS2(=O)=O)c1`, with 936 nM; and `CN1CCC(N(Cc2ccc(N3CCN(Cc4c[nH]c5ccc(Cl)cc45)CC3)nc2)C2CC2)CC1`, with 999 nM.
Then `Clc1ccc2nccc(N3CCC(CN4CCC(c5c[nH]c6ccccc56)CC4)CC3)c2c1`, with 33.9 nM; and `CC(C)CN1CCC(N(C)c2cc(NC(=O)c3cccc(F)c3)ccn2)CC1`, with 848 nM; and `Cc1cccc2nc(-c3cccc(-c4ccc(NC(=O)Cc5ccon5)cc4)c3)[nH]c12`, with 1090 nM.
`COc1ccc(Cl)cc1N1CCN(CCCNC(=O)c2ccc(-c3nc4cc(Cl)c(F)cc4[nH]3)c(F)c2)CC1`: the XC50 was determined as 1110 nM.
To `CC(CCc1ccccc1)NCC(O)c1cccc(C(F)(F)F)c1` (configuration not stated) belongs 709 nM; to `Cc1ccc(-c2nc3cc(C(=O)NC4CCC(N5CCCc6ccc(C#N)cc6C5)CC4)ccc3[nH]2)cc1` (configuration not stated), 1360 nM.
To `c1ccc(CCNCc2ccc(-c3ccc(CNCc4ccc5c(c4)OCO5)cc3)nc2)cc1` belongs 1250 nM; to `Cc1ccc(NC(=O)c2ccc(Cl)c(Cl)c2)cc1-c1ccc(C(=O)Nc2ccncc2)cc1`, 567 nM; to `N#CC(CC(=O)c1ccc(Cl)cc1)c1cccc(F)c1` (configuration not stated), 854 nM.
To `Nc1ncc(-c2ccc3ncccc3c2)c(N)n1` belongs 918 nM.
`O=C(Nc1cccc(-c2nn3ccccc3c2-c2ccnc(Nc3ccc(NCCCN4CCOCC4)c(F)c3)n2)c1)c1c(F)cccc1F`: the XC50 amounted to 259 nM.
On to `N=C1C=C(N)C(=O)c2ccccc21`, for which the XC50 was 1050 nM.
Then `COc1ccc2nccc([C@@H](O)CN3CCC(NCc4cc5ccccc5[nH]4)CC3)c2n1`, with 628 nM; and `Cc1cc(C(=O)CN2C(=O)NC(C)(c3ccc4ccccc4c3)C2=O)c(C)n1Cc1ccco1` (configuration not stated), with 661 nM.
`Oc1ccc(C=NNC(S)=Nc2cccc3ccccc23)c(O)c1` yielded an XC50 of 1040 nM.
`CN(C)CCCNCc1ccc(-c2ccc(F)c(Cl)c2)o1`: the XC50 stood at 802 nM.
Then `CSc1c(CNCCCNc2cc(=O)c3ccccc3[nH]2)[nH]c2ccccc12`, with 1120 nM.
To `CCOc1ccc(-c2nc(NC(=O)Cc3cccc(OC)c3)sc2C)cc1` belongs 730 nM.
For the compound `C=CCN1CCC(N(Cc2cccc(Oc3ccccc3)c2)C(=O)C(c2ccccc2)c2ccccc2)CC1`, the XC50 was found to be 1140 nM.
To `N=C(N)Nc1nc(-c2cccc(NC(=O)C(F)(F)F)c2)cs1` belongs 1050 nM; to `Cc1cc(NCC(c2ccccc2)c2ccccc2)nc(NCC2CCCCC2)n1`, 507 nM; to `O=C(Nc1cccc(CN2CCN(C(=O)c3cccc(F)c3)CC2)c1)c1ccco1`, 775 nM.
To `O=C(Nc1ccc(Oc2ccccc2)cc1)NC1CCC(CN2CCC(c3c[nH]c4ccccc34)CC2)CC1` (configuration not stated) belongs 573 nM.
To `COc1cc(F)c2ncc(Cl)c(CCN3CCC(NCc4ccc5c(n4)NC(=O)CO5)CC3)c2c1` belongs 504 nM; to `CC[C@H]1CN(Cc2ccccc2Br)CC[C@H]1CCCc1ccnc2ccc(O)cc12`, 1000 nM.
Consider `COc1ccc2nccc([C@@H](O)CN3CCC(NCc4cnc5c(c4)NC(=O)CS5)C(F)C3)c2c1` (some centres not stated), for which the XC50 is 769 nM.
Then `CN(C)CCN(Cc1ccccc1-c1ccc(CNCCc2ccccc2)cc1)C(=O)NC1CCCCC1`, with 906 nM; and `COc1ccc(-c2cnc3ccc(N4CCCC4)nn23)cc1OC`, with 772 nM; and `COc1ccc2nccc([C@H](O)CN3CCC(NCc4nc5cccc(F)c5[nH]4)CC3)c2c1`, with 705 nM.
Then `Fc1ccc2[nH]c(-c3cccc(-c4ccc(CN5CCN(c6cnccn6)CC5)cc4)c3)nc2c1`, with 893 nM; and `Cc1cc(=O)c(-c2ccc(Oc3ccc(Cl)cc3Cl)cc2)c(C)[nH]1`, with 841 nM; and `CCc1cn2c3c(cc(C(=O)N[C@@H](Cc4cccc(F)c4)[C@H](O)CNC4CCCCC4)cc13)N(C)S(=O)(=O)CC2`, with 29.7 nM.
To `CS(=O)(=O)Nc1cccc(-c2cnc3[nH]cc(-c4cccc(CN)c4)c3c2)c1` belongs 1660 nM; to `Cc1[nH]c2ccccc2c1C1=CCN(CCCCC23CCCc4cccc(c42)NC3=O)CC1` (configuration not stated), 231 nM.
`Cc1ccc(S(=O)(=O)N(CCCN2CCN(C)CC2)Cc2csc(-c3ccc(CNCc4ccccc4)cc3)n2)cc1` had an XC50 of 841 nM.
To `Cc1cc2nc(-c3ccc(/C=C/C(=O)NCCc4ccccc4)cc3)[nH]c2cc1C` belongs 779 nM; to `CC(C)C[C@H](NC(=O)c1ccc(OCCN2CCOCC2)cc1)C(=O)N[C@H](/C=N/N1CC(=O)NC1=O)CCc1ccccc1`, 277 nM; to `Brc1ccc(Nc2nc3ccccc3nc2Nc2ccc(Br)cc2)cc1`, 783 nM.
Then `NC1CCN(Cc2cccc(-c3ccc(-c4nc5cc(F)ccc5[nH]4)cc3)c2)C1` (configuration not stated), with 596 nM; and `CCN(CC)CCCNC(=O)/C(=C/C=C/c1cc2cc(Cl)c(Cl)cc2[nH]1)OC`, with 1160 nM; and `Cc1cccc(Cl)c1Nc1nnc(-c2cccc(C(=O)NC[C@@H]3CC[C@H]4C[C@@H]3C4(C)C)c2)o1`, with 273 nM.
The compound `Cc1cccn2c(=O)c3cc(C(=O)NCCN4CCOCC4)c(=N)n(CCc4ccccc4)c3nc12` returned an XC50 of 468 nM.
To `COc1ccc2nccc([C@@H](O)CN3CCC(NC(=O)/C=C/c4cccc(C)c4)CC3)c2c1` belongs 1250 nM; to `COc1ccc(CCNC(=O)c2cc(C)ccc2O)cc1-c1ccc(C(C)(C)C)cc1`, 482 nM.
`Cc1ccccc1C1CCN(c2ccc(C(=O)Nc3ccccc3)cn2)CC1` gave an XC50 of 327 nM.
Then `CCOc1cc(C)ccc1C1CCN(CCCCNC(=O)c2nc(-c3ccc(C(F)(F)F)cc3)[nH]c2C)CC1`, with 729 nM.
Then `Cc1c(CN2CCC(N3CCC(C(=O)NC4CC4)CC3)CC2)[nH]c2c(Cl)cccc12`, with 1190 nM; and `O=C(Nc1ccc(C(=O)OCC2CCCCC2)cc1)N[C@@H](Cc1ccc(O)cc1)C(=O)NC1CCN(Cc2ccc(O)cc2)C1` (some centres not stated), with 874 nM.
`O=C(NCCCNc1ccnc2cc(Cl)ccc12)c1ccccc1F` registered an XC50 of 315 nM.
Compound `COc1ccc(CNCCCCCCNCCc2ccc(Cl)cc2)cc1OC` came in with an XC50 of 1390 nM.
Then `COc1ccc2nc3cc(Cl)ccc3c(NCc3ccccc3)c2c1`, with 866 nM; and `CCCc1cc(=O)[nH]c(-n2nc(C)cc2NC(=O)CC(c2ccccc2)c2ccccc2)n1`, with 618 nM; and `CC(C)(C)OC(=O)NCc1ccc(Nc2nnc(-c3ccc(OCC(=O)NCc4cc(C(F)(F)F)cc(C(F)(F)F)c4)c([N+](=O)[O-])c3)o2)cc1`, with 460 nM.
Then `COc1cccc(CN2Cc3ccccc3OC3(CCN(Cc4c[nH]c5cnccc45)CC3)C2)c1`, with 1300 nM; and `Cc1ccc(NC(C)C(=O)Nc2ccccc2)cc1S(=O)(=O)N1CCCCCC1` (configuration not stated), with 62.4 nM; and `O=C(NCc1ccc(C(=O)NC2CCCCCC2)cc1)c1ccc(O)c(-c2ccc(Cl)c(Cl)c2)c1`, with 1060 nM.
To `O=C(Nc1ccc2ccccc2c1)N(CCCn1ccnc1)Cc1csc(-c2ccc(CNCc3ccccc3)cc2)n1` belongs 739 nM.
`CN(C)CCNc1cc(-c2cccnc2)nc(-c2ccncc2)n1` gave an XC50 of 596 nM.
Then `COc1ccc(CN2CCCN(Cc3cccc(C(=O)Nc4ccc(C(C)(C)C)cc4)c3)CC2)cc1`, with 891 nM; and `N#Cc1ccc(N2C[C@@H](OCc3ccccc3)C[C@H]2C(=O)NCCC(c2ccccc2)c2ccccc2)c2ccccc12`, with 856 nM; and `OC(CNCc1ccccc1Oc1ccccc1)c1cccc(C(F)(F)F)c1` (configuration not stated), with 713 nM.
Then `COc1ccc(-c2cccc(NC(=O)c3ccc(C#N)cc3)c2)cc1CN1CCCC1`, with 696 nM.
To `Cc1cc(N2CCCC2=O)ccc1-c1ccc(C(=O)N2CCC(Oc3cccc(Cl)c3)CC2)cc1` belongs 427 nM; to `Nc1nc(N)c2c(ccc3c2ccn3CCCC(F)(F)F)n1`, 98 nM.
Consider `CN(CCCNCc1ccc2ccccc2c1)CCCNCc1ccc2ccccc2c1`, for which the XC50 was found to be 391 nM.
To `S=C(Nc1ccccc1Cl)NC1CCC(CN2CCC(c3c[nH]c4ccccc34)CC2)CC1` (configuration not stated) belongs 1050 nM; to `CCCOc1ccc(C(=O)Nc2nonc2-c2ccc(OC)c(OC)c2)cc1`, 991 nM; to `NC1CCN(Cc2ccc(-c3cccc(-c4nc5cc(F)ccc5[nH]4)c3)cc2)C1` (configuration not stated), 759 nM.
Then `CNC(=O)C1Cc2c([nH]c3cc(Cl)ccc23)C2(CCN(CCc3ccccc3)CC2)N1` (configuration not stated), with 934 nM; and `Cc1cccc(CN2CCCN(Cc3cccc(C(=O)Nc4ccc(C(C)(C)C)cc4)c3)CC2)c1`, with 934 nM.
To `NOCCCCOc1ccccc1` belongs 177 nM; to `Cc1ccc(Oc2c(-c3ccccc3CN3CCCC3CN(C)C)cnn(C)c2=O)cn1` (configuration not stated), 1160 nM; to `O=C(/C=C/c1ccc(Cl)c(Cl)c1)NCCCCCN1CCC(NC(=O)c2ccc(F)cc2)CC1`, 706 nM.
Turning to `CC(C)CCCC(C)(C)NC[C@@H](O)[C@H](Cc1ccccc1)NC(=O)c1cccc(CCC2CC2)c1`, the XC50 was 796 nM.
`O=C(NCC1CCN(Cc2cccc(C(F)(F)F)c2)C1)c1cc(-c2cccc(F)c2)cs1` (configuration not stated) displayed an XC50 of 1180 nM.
Compound `Cc1csc2nc(-c3ccccn3)nc(Nc3ccncn3)c12` yielded an XC50 of 786 nM.
Then `O=C(CC1SC(N2N=C(c3cccs3)CC2c2ccccc2)=NC1=O)Nc1ccccc1F` (configuration not stated), with 1090 nM; and `CC(C)Nc1nc(NCCc2c[nH]cn2)nc(NCc2cccc3ccccc23)n1`, with 1010 nM.
Then `COc1ccc(Nc2nccc(NCCNC(=O)Nc3cc(C)ccc3C)n2)cc1`, with 1050 nM.
Then `Cc1nc(C)c(CC(=O)Nc2cccc(-c3cccc(-c4nc5cc(C(F)(F)F)ccc5[nH]4)c3)c2)s1`, with 827 nM; and `Cc1cc(F)ccc1Nc1nc(N(C)c2ccccc2)c2cccc(OCCO)c2n1`, with 795 nM.

(Values after ChEMBL document CHEMBL1157539, “Thousands of chemical starting points for antimalarial lead identification” (Nature, 2010).)
